Measured values reported in PubChem BioAssay (NCI).
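Grown in 96-well plates, cells were treated for 48 hours with each compound at five concentrations. Insufficient inhibition: endpoint recorded as highest concentration tested. The concentration for 50% growth inhibition is given as GI50. Definition used: TGI = concentration required for complete inhibition of growth.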

Experiments:
Test in all cases: NCI anticancer screen, dose series, 48 h
[1] = system: HOP-62 NSCLC
[2] = system: HT29 colon
[3] = system: LOX IMVI melanoma
[4] = system: MALME-3M melanoma
[5] = system: MDA-MB-435
[6] = system: SF-295 CNS
[7] = system: SK-OV-3 ovarian
[8] = system: SNB-19 CNS
[9] = system: SNB-75 CNS
[10] = system: UO-31 renal

| SMILES | TGI [1] [µM] | TGI [2] [µM] | TGI [3] [µM] | TGI [4] [µM] | TGI [5] [µM] | TGI [6] [µM] | TGI [7] [µM] | TGI [8] [µM] | TGI [9] [µM] | TGI [10] [µM] | GI50 [3] [µM] | GI50 [4] [µM] | GI50 [1] [µM] | GI50 [2] [µM] | GI50 [5] [µM] | GI50 [6] [µM] | GI50 [7] [µM] | GI50 [8] [µM] | GI50 [9] [µM] | GI50 [10] [µM] |
| --- | --- | --- | --- | --- | --- | --- | --- | --- | --- | --- | --- | --- | --- | --- | --- | --- | --- | --- | --- | --- |
| c1ccc(-c2nnc(SCc3c[nH]c4ccccc34)n2-c2ccccc2)cc1 | > 100 | > 100 | > 100 | > 100 | > 100 | > 100 | > 100 | > 100 | 57.6 | > 100 |  |  |  |  |  |  |  |  |  |  |
| O=C(Nc1c(C(=O)NC2CCCCC2)[nH]c(=O)[nH]c1=O)c1ccc(Cl)cc1 | > 100 | > 100 | > 100 | > 100 |  | > 100 | > 100 |  | 85.1 | > 100 |  |  |  |  |  |  |  |  |  |  |
| COC1=CC(=O)c2c(cc(COP(=O)(OCC3OC(n4cc(F)c(=O)[nH]c4=O)CC3O)N(C)CCCCCl)n2C)C1=O (stereo not given) | 26.8 | > 40.7 | 14.7 | 9.97 | 5 | 1.36 | > 79.8 | > 70.5 |  | > 69.3 |  |  |  |  |  |  |  |  |  |  |
| C=C1C(=O)O[C@@H]2[C@H]1CCC(C)=C1C=CC(=O)[C@]12C |  | 24.2 |  |  |  | 32.7 | 61.4 | 71.8 | 34.4 | 28.7 |  |  |  |  |  |  |  |  |  |  |
| N=C(N)SCc1cc(Cl)cc(Cl)c1O | 38 | 32.1 | 36.2 | 72.7 | 38 | 55.7 | > 100 | 56.8 |  | 32.4 |  |  |  |  |  |  |  |  |  |  |
| Cc1ccc(C2N=C(N)NC3=C2CCOc2c3ccc3ccccc23)cc1 (stereo not given) | 35.1 | > 66.7 | 38.9 | > 40.6 | > 23.4 | 62.2 | > 100 | > 100 | > 78.6 | > 100 | 9.98 | 4.7 |  |  |  |  |  |  |  |  |
| O=C(O)C1CCC(=O)N1S(=O)(=O)c1ccccc1 (stereo not given) | > 100 | > 100 | > 100 | > 100 |  | > 100 | > 100 | > 100 | > 100 | > 100 |  |  |  |  |  |  |  |  |  |  |
| COc1ccc(-c2nn(-c3cccc(NC(=O)Nc4ccccc4)c3)cc2-c2ccncc2)cc1Cl | 9.13 | 4.78 | 17 | 4.83 | 5.25 | 6.32 | 30.8 | > 100 | 2.79 | 4.02 | 3.25 | 1.89 | 3.12 | 2.19 | 2.03 | 2.01 | 3.4 | 2.83 | 1.33 | 1.5 |
| CCOc1ccc(/C(C=O)=C(\Cl)c2ccc(OC)c(OC)c2)cc1 |  | > 100 | > 100 | > 100 |  | > 100 | > 100 | > 100 |  | > 100 |  |  |  |  |  |  |  |  |  |  |
| O=c1cc(N2CCCC2)[nH]c(=O)n1-c1ccc(F)cc1 | > 100 | > 100 | > 100 | > 100 | > 100 | > 100 | > 100 | > 100 | > 100 |  |  |  |  |  |  |  |  |  |  |  |
| Clc1ccc(CNc2nc(Cl)c3[nH]cnc3n2)cc1Cl | 89.2 | 83.4 |  | > 100 | > 100 | > 100 | 85.5 | > 100 | > 100 | 60 |  |  |  |  |  |  |  |  |  |  |
| Cc1cc(S(=O)(=O)NC2=NC(c3ccccc3)c3cc(Cl)ccc3N2)c(S)cc1Cl (stereo not given) | > 100 | > 100 | > 100 | > 100 | > 100 | > 100 | > 100 | > 100 | > 100 | 83.7 |  |  |  |  |  |  |  |  |  |  |
| Cc1cc2c(C(C)C)c(O)c(O)c(C=NCCO)c2c(O)c1-c1c(C)cc2c(C(C)C)c(O)c(O)c(C=NCCO)c2c1O | 5.96 | 4.99 | 3.11 | 9.36 |  | 5.51 | 12.3 | 25.1 | 9.13 | 11 |  |  |  |  |  |  |  |  |  |  |
| CO/C(=C/C(=O)C(Cl)(Cl)Cl)CC/C(=C\C(=O)C(Cl)(Cl)Cl)OC | 49.5 | 85.3 | 41.5 | 66.4 | 53.4 | > 100 | 87.3 | > 100 | > 100 | 43.4 |  |  |  |  |  |  |  |  |  |  |
| CN1C[C@H]2[C@@H](C1=O)[C@H](c1ccccc1)ON2C | > 100 | > 100 | > 100 |  | > 100 | > 100 | > 100 | > 100 | > 100 | > 100 |  |  |  |  |  |  |  |  |  |  |
| COC(=O)[C@@]1(Cc2ccc(O)cc2)C[C@@H]2Cc3ccccc3N2N1 | > 100 | > 100 | > 100 | > 100 | > 100 | > 100 | > 100 | > 100 |  | > 100 |  |  |  |  |  |  |  |  |  |  |
